The source of these data is patent US5658905A, “Use of triazine compounds as anxiolytics” (priority 1993, dated 1997).

The structures appear in SMILES notation. Counter-ions that a name gives are not always drawn. Like-named read-outs stand apart in the source and are kept apart here.

Usually LD50 stands for the dose at which mortality reaches 50%. A lower LD50 goes with greater toxicity.

For data set [1] the following is noted: reported; models not named; cited from earlier work.
Data set [2] is described as follows: Vogel conflict (punished drinking) model of anxiety.
For data set [3] the following is noted: isethionate salt, EP-A-0 247 892, cited from earlier work.
Data set [4] deals with release of excitatory amino acids, principally glutamate. To be noted: at anticonvulsant brain concentrations; Leach et al 1986; Zhu and McGee 1990; cited from earlier work.
Data set [5] in a line: Orientative acute oral toxicity (LD50) in rats. As to conditions: rat, in vivo, 50% survive 10 days after administration. From the text:
(§1) The present compounds are non-toxic at prophylactically and therapeutically effective doses. […] These are the dose levels at which 50% of the animals survive 10 days after administration of compound A.

Data set [6] has as its system voltage-sensitive sodium channels. As to conditions: Lang et al 1993; Lees and Leach 1993; cited from earlier work.
A further data set deals with mice. Nature of the data set: Orientative acute oral toxicity (LD50) in mice. As to conditions: 50% survive 10 days after administration. In kind it is in vivo.
Source text: as §1

Setting [7] is: Rattus norvegicus, po, 1 h, read-out: number of licks, percentage of vehicle control responding.
[8] abbreviates: dose-response across tested doses, significance p<0.05, Mann-Whitney U-test.
Setting [9] is: Rattus norvegicus, po, 1 h, read-out: number of licks, percentage of vehicle control responding, 20 mg/kg p.o., one hour before test, vehicle=100% (Table 3).
[10] abbreviates: Rattus norvegicus, po, 1 h, read-out: number of licks, percentage of vehicle control responding, 40 mg/kg p.o., one hour before test, vehicle=100% (Table 3).
Setting [11] is: Rattus norvegicus, po, 1 h, read-out: number of licks, percentage of vehicle control responding, 80 mg/kg p.o., one hour before test, vehicle=100% (Table 3).
The mark [12] stands for this setting: Rattus norvegicus, 1 h, read-out: number of licks, percentage of vehicle control responding.
Where [13] appears, read: Rattus norvegicus, sc, 20 min, read-out: number of licks, percentage of vehicle control responding.
Where [14] appears, read: Rattus norvegicus, po, 1 h, read-out: number of licks, percentage of vehicle control responding, 160 mg/kg p.o., one hour before test, vehicle=100% (Table 3).

On to `CN1[C@@H]2CC[C@H]1C[C@@H](OC(=O)c1cc(Cl)cc(Cl)c1)C2` [Bemesetron], for which the “anxiolytic effects in other animal models” value in data set [1] is “reported to exhibit anxiolytic effects in other animal models”. Moreover, in data set [2] (setting [7]), the response vs control in vivo at 0.0001 mg/kg worked out at 89%, the response vs control in vivo at 0.001 mg/kg amounted to 129%, the response vs control in vivo at 0.01 mg/kg was 156% and the response vs control in vivo at 0.1 mg/kg is 116%. In addition, in data set [2] (setting [8]), the “effect on punished responding (in words)” value was “lack of any significant anxiolytic effect”.

`NC(=O)N1c2ccccc2C=Cc2ccccc21` [Carbamazepine]: the “effect on punished responding (in words)” value in data set [2] (5.0 mg/kg p.o.) is recorded as “no effect”; in data set [2] (20 mg/kg p.o.) it was “non-significant increase in PR”; in data set [2] (setting [8]), “dose-related, significant increase in punished responding”. For the same compound, the response vs control in vivo at 5 mg/kg in data set [2] (Rattus norvegicus, po, 1 h, read-out: number of licks, percentage of vehicle control responding, 5.0 mg/kg p.o., one hour before test, vehicle=100% (Table 2)) came out at 87%. In addition, in data set [2] (Rattus norvegicus, po, 1 h, read-out: number of licks, percentage of vehicle control responding, 10 mg/kg p.o., one hour before test, vehicle=100% (Table 3)), the response vs control in vivo at 10 mg/kg came to 154%. Besides, the response vs control in vivo at 20 mg/kg in data set [2] (Rattus norvegicus, po, 1 h, read-out: number of licks, percentage of vehicle control responding, 20.0 mg/kg p.o., one hour before test, vehicle=100% (Table 2)) was found to be 161%; in data set [2] (setting [9]), 206%. Besides, the response vs control in vivo at 40 mg/kg in data set [2] (setting [10]) stood at 219%. The response vs control in vivo at 80 mg/kg in data set [2] (setting [11]) worked out at 309%.

For the compound `Nc1nnc(-c2cccc(Cl)c2Cl)c(N)n1` [Compound A isethionate, 3,5-diamino-6-(2,3-dichlorophenyl)-1,2,4-triazine isethionate], in data set [3], the solubility entry is “good solubility”. The solubility entry in data set [3] (listed as salt with isethionic acid) is “particularly good solubility”. The other behavioural changes entry in data set [2] (10, 20, 40 mg/kg base equivalent p.o.) is given as “no other behavioural changes were observed”. Also, in data set [2] (setting [12]), the response vs control in vivo at 10 mg/kg is 92%, the response vs control in vivo at 20 mg/kg was 165% and the response vs control in vivo at 40 mg/kg was determined as 208%. In addition, the “effect on punished responding (in words)” value in data set [2] (setting [8]) was “dose-related increase in punished responding at 20 and 40 mg/kg, that at the latter dose being significant”.

Take `Nc1nnc(-c2cccc(Cl)c2Cl)c(N)n1` [Compound A, 3,5-Diamino-6-(2,3-dichlorophenyl)-1,2,4-triazine]: the “inhibition of release of excitatory amino acids, principally glutamate” value in data set [4] is given as “inhibit the release of excitatory. amino acids, principally glutamate”. The same compound displayed a 50% lethal dose (LD50) at 240 h in data set [5] of 640 mg/kg. Moreover, the “block of voltage-sensitive sodium channels” value in data set [6] is listed as “use-dependent block of voltage-sensitive sodium channels”. For the same compound, the “acute oral toxicity (LD50)” value in the data set with mice worked out at 250 mg/kg.

`CN1C(=O)CN=C(c2ccccc2)c2cc(Cl)ccc21` [Diazepam, 7-chloro-1,3-dihydro-1-methyl-5-phenyl-2H-1,4-benzodiazepin-2-one]: the ataxia entry in data set [2] (1.0 mg/kg s.c.) is listed as “accompanied by ataxia”. In data set [2] (setting [13]), the response vs control in vivo at 0.5 mg/kg was found to be 162% and the response vs control in vivo at 1 mg/kg was found to be 296%. For the same compound, the “effect on punished responding (in words)” value in data set [2] (setting [8]) is “dose-related increase in punished responding (PR) at 0.5 and 1.0 mg/kg. This effect was large and significant”.

On to `CCC1(C)CC(=O)NC1=O` (stereo not drawn) [Ethosuximide], for which the response vs control in vivo at 40 mg/kg in data set [2] (setting [10]) turned out to be 64%. The response vs control in vivo at 80 mg/kg in data set [2] (setting [11]) was found to be 133%. The response vs control in vivo at 160 mg/kg in data set [2] (setting [14]) amounted to 61%. For the same compound, the response vs control in vivo at 320 mg/kg in data set [2] (Rattus norvegicus, po, 1 h, read-out: number of licks, percentage of vehicle control responding, 320 mg/kg p.o., one hour before test, vehicle=100% (Table 3)) came out at 96%.

As for `Cc1nccn1CC1CCc2c(c3ccccc3n2C)C1=O` (stereo not drawn) [Ondansetron hydrochloride], the “anxiolytic effects in other animal models” value in data set [1] is recorded as “reported to exhibit anxiolytic effects in other animal models”. Also, the response vs control in vivo at 0.0001 mg/kg in data set [2] (Rattus norvegicus, po, 1 h, read-out: number of licks, percentage of vehicle control responding, 0.1 μg/kg p.o., one hour before test, vehicle=100% (Table 3)) came out at 68%. Moreover, the response vs control in vivo at 0.001 mg/kg in data set [2] (Rattus norvegicus, po, 1 h, read-out: number of licks, percentage of vehicle control responding, 1.0 μg/kg p.o., one hour before test, vehicle=100% (Table 3)) is 80%. In data set [2] (Rattus norvegicus, po, 1 h, read-out: number of licks, percentage of vehicle control responding, 10 μg/kg p.o., one hour before test, vehicle=100% (Table 3)), the response vs control in vivo at 0.01 mg/kg was 70%. The response vs control in vivo at 0.1 mg/kg in data set [2] (Rattus norvegicus, po, 1 h, read-out: number of licks, percentage of vehicle control responding, 100 μg/kg p.o., one hour before test, vehicle=100% (Table 3)) is 87%. In addition, the “effect on punished responding (in words)” value in data set [2] (setting [8]) was “lack of any significant anxiolytic effect”.

As to `O=C1NC(=O)C(c2ccccc2)(c2ccccc2)N1` [Phenytoin sodium], the “effect on punished responding (in words)” value in data set [2] (10 or 40 mg/kg p.o.) was “no effect on PR”. Also, in data set [2] (Rattus norvegicus, po, 1 h, read-out: number of licks, percentage of vehicle control responding, 10.0 mg/kg p.o. (parent acid equivalent), one hour before test, vehicle=100% (Table 2)), the response vs control in vivo at 10 mg/kg was found to be 121%. The response vs control in vivo at 20 mg/kg in data set [2] (setting [9]) is 101%. Further, the response vs control in vivo at 40 mg/kg in data set [2] (Rattus norvegicus, po, 1 h, read-out: number of licks, percentage of vehicle control responding, 40.0 mg/kg p.o. (parent acid equivalent), one hour before test, vehicle=100% (Table 2)) is 114%; in data set [2] (setting [10]), 135%. Besides, in data set [2] (setting [11]), the response vs control in vivo at 80 mg/kg stood at 220%. In data set [2] (setting [14]), the response vs control in vivo at 160 mg/kg was found to be 173%.

As for `CCCC(CCC)C(=O)O` [Sodium valproate], in data set [2] (setting [7]), the response vs control in vivo at 40 mg/kg came out at 79%, the response vs control in vivo at 80 mg/kg was determined as 108%, the response vs control in vivo at 160 mg/kg amounted to 151% and the response vs control in vivo at 320 mg/kg worked out at 261%.
